Laboratory results as given in BindingDB's records for patent US20250171431 (Horizon Therapeutics Ireland Dac, 2025).

biological target: Insulin-like growth factor 1 receptor (Homo sapiens, UniProt P08069); assay: Biologic and Pharmacologic Assay
Description: The media was removed and replaced by 50 μL of 1× lysis buffer from the AlphaLISA kit (with 1× of cOmplete™ protease inhibitor). The plates were sealed, and cells were allowed to lyse for 10 min in the shaker before storing the plate at −20° C. until used. The AlphaLISA assay with processed cell lysates were performed as described in the protocol. Briefly, 10 μL of the undiluted sample were loaded to 384 well Optiplates and 5 μL of the acceptor mix (as described in the AlphaLISA kit) was added to each well. The plates were sealed and briefly vortexed followed by the incubation at RT for 3 hours. In the dark, 5 μL of donor mix was added to each well. All plates were sealed and stored at RT overnight. The plates were read in EnVision reader using standard AlphaLISA settings.Compound activity was analyzed using CBIS data analysis suite (ChemInnovation, CA).

Insulin-like growth factor 1 receptor, sequence (P08069 31-736 limits assumed): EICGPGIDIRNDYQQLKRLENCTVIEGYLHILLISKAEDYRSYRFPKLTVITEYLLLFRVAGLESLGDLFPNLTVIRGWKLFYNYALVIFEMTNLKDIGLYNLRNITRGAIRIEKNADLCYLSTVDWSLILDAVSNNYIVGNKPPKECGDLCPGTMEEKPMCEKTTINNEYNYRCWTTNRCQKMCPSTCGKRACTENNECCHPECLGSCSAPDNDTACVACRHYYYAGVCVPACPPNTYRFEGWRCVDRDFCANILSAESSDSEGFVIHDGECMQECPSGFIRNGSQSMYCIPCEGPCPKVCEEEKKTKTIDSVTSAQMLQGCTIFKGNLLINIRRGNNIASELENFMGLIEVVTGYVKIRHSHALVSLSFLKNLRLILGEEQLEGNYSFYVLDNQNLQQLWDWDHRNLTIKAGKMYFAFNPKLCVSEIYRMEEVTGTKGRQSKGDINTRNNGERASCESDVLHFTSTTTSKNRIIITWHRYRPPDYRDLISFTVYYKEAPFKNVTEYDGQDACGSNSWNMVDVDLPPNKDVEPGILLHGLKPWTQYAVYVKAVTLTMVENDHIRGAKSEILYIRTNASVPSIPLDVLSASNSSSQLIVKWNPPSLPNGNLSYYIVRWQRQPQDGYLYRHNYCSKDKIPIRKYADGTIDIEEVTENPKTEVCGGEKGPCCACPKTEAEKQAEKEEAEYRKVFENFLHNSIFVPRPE
Insulin-like growth factor 1 receptor, sequence (P08069 741-1367 limits assumed): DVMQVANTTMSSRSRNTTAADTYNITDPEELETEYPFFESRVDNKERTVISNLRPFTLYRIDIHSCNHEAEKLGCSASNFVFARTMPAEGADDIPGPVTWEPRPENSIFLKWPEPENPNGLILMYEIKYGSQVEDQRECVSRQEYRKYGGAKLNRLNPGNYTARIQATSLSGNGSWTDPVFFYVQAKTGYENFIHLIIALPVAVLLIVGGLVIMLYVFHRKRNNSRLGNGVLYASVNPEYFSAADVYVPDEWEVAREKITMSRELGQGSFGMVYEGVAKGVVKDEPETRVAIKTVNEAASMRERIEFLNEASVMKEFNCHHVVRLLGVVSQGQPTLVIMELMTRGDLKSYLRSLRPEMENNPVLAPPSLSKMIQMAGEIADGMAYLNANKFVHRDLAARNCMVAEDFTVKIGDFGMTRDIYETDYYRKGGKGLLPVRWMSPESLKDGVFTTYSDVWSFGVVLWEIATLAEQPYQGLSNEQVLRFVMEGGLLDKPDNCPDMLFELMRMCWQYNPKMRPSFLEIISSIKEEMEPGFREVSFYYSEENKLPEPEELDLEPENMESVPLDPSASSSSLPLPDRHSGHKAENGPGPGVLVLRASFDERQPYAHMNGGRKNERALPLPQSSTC

SMILES | IC50
COc1cc(Nc2nccc(Nc3ccc4ncc(Cl)nc4c3)n2)ccc1O[C@H]1C[C@@H](N(C)C)C1 [US20250171431, Compound 134] | < 500 nM
COc1cc(Nc2nccc(Nc3cc(F)c4ncc(Br)cc4c3)n2)ccc1O[C@H]1C[C@@H](N(C)C)C1 [US20250171431, Compound 133] | < 500 nM
COc1cc(Nc2nccc(Nc3cnc4ccc(Cl)cc4c3)n2)cnc1N1CCNC(C(F)F)C1 (stereo not given) [US20250171431, Compound 483] | < 500 nM
COc1cc(Nc2nccc(Nc3cc4cccc(F)c4[nH]c3=O)n2)cnc1N1CCC(N(C)C)CC1 [US20250171431, Compound 164] | < 500 nM
COc1cc(C2CCNCC2(F)F)ccc1Nc1nccc(Nc2cc3cccc(F)c3[nH]c2=O)n1 (stereo not given) [US20250171431, Compound 222] | < 500 nM
COc1cc(Nc2nccc(Nc3cc4cccc(F)c4nc3O)n2)cnc1O[C@@H]1C[C@H](N(C)C)C1(C)C [US20250171431, Compound 253] | > 10000 nM
COc1cc(Nc2nccc(Nc3cnc4ccccc4c3)n2)ccc1N1CCC(N(C)C)CC1 [US20250171431, Compound 95] | < 500 nM
COc1cc(Nc2nccc(Nc3cc4c(F)cccc4[nH]c3=O)n2)ccc1O[C@H]1C[C@@H](N(C)C)C1 [US20250171431, Compound 123] | < 500 nM
COc1cc(Nc2nccc(Nc3cnc4cc(Cl)ccc4c3)n2)ccc1OCCCN1CCCCC1 [US20250171431, Compound 428] | < 500 nM
COc1cc(Nc2nccc(Nc3cc4ccccc4nc3C#N)n2)cnc1O[C@H]1C[C@@H](N(C)C)C1 [US20250171431, Compound 269] | > 10000 nM
COc1cc(Nc2nccc(Nc3cnc4c(Cl)cccc4c3)n2)ccc1O[C@H]1C[C@@H](N(C)C)C1 [US20250171431, Compound 344] | < 500 nM
O=S1(=O)CCN([C@H]2CC[C@@H](Oc3ccc(Nc4nccc(Nc5cnc6ccc(Cl)cc6c5)n4)cc3)CC2)CC1 [US20250171431, Compound 309] | < 500 nM
COc1cc(Nc2nccc(Nc3cnc4cncc(F)c4c3)n2)cnc1O[C@H]1C[C@@H](N(C)C)C1 [US20250171431, Compound 88] | < 500 nM
COc1cc(Nc2nccc(Nc3cc4cc(Cl)ccc4[nH]c3=O)n2)ccc1O[C@H]1CC[C@@H](N(C)C)CC1 [US20250171431, Compound 247] | < 500 nM
COc1cc(Nc2nccc(Nc3cnc4c(c3)OC(C)(C)C(=O)N4)n2)ccc1O[C@H]1C[C@@H](N(C)C)C1 [US20250171431, Compound 288] | 500 to 2000 nM
COc1cc(Nc2nccc(Nc3ccc(C4CC4)nc3C(N)=O)n2)ccc1O[C@H]1C[C@@H](N(C)C)C1 [US20250171431, Compound 124] | < 500 nM
COc1cc(N2CCN(C)CC2)ncc1Nc1nccc(Nc2cc3cccc(F)c3nc2O)n1 [US20250171431, Compound 91] | < 500 nM
COc1cc(Nc2nccc(Nc3cc4cccc(F)c4[nH]c3=O)n2)ccc1C1CCNCC1(F)F (stereo not given) [US20250171431, Compound 208] | < 500 nM
COc1cc(Nc2nccc(Nc3cnc4ccccc4c3)n2)ccc1N1CCC(N2CCCCC2)CC1 [US20250171431, Compound 1] | < 500 nM
COc1cc(Nc2nccc(Nc3cnc4ccc(C#N)cc4c3)n2)ccc1OCCCN1CCCCC1 [US20250171431, Compound 392] | < 500 nM
